Like-named read-outs stand apart in the source and are kept apart here.
Target: T1, SFRP-1 (Homo sapiens, UniProt Q8N474)
T1 sequence (Q8N474 32-314): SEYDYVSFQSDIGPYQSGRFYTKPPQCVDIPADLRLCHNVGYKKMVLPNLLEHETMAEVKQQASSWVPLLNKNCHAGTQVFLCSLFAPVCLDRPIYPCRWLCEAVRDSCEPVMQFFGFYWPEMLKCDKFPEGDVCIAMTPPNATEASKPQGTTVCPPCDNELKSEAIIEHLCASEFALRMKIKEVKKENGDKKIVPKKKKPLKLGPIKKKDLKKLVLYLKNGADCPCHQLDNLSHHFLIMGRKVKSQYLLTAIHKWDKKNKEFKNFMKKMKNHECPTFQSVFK
Test: Cell-based assay for in vitro measurement of SFRP-1/SARP2 antagonist activity (U2OS cells co-transfected with 16x TCF-tk-Luciferase reporter, Wnt and hSFRP-1);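 further: U2OS cells co-transfected with a TCF-tk luciferase reporter, a Wnt vector, hSFRP-1 or empty vector and CMV-βgal, luciferase luminescence read in cell lysates alongside βgal activity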
Details: U2OS; for fold induction at 10 µM: read-out: Fold Induction with SFRP-1, U2OS cells, single dose 10 μM, luciferase reporter, fold induction over SFRP-1 control

[1] = read-out: Fold Induction with SFRP-1, Conc 15 μM, single dose, luciferase reporter, fold induction over SFRP-1 control, cells with SFRP-1
[2] = read-out: Fold Induction without SFRP-1, Conc 15 μM, single dose, luciferase reporter, cells without SFRP-1 (specificity control)
[3] = read-out: Fold Induction with SFRP-1, Conc 15 μM, with SFRP-1, fold induction over SFRP-1 control, single dose
[4] = read-out: Fold Induction without SFRP-1, Conc 15 μM, without SFRP-1, single dose
[5] = read-out: Fold Induction with SFRP-1, Conc 30 μM, with SFRP-1, fold induction over SFRP-1 control, single dose
[6] = read-out: Fold Induction without SFRP-1, Conc 30 μM, without SFRP-1, single dose

Row | SMILES | fold induction at 15 µM [3] | fold induction at 15 µM [4] | further results
1 | O=S(=O)(c1ccccc1)c1ccc(Cl)c(S(=O)(=O)N2CCN(CCN3CCOCC3)CC2)c1 [Example 636, 4-[2-(4-{[2-chloro-5-(phenylsulfonyl)phenyl]sulfonyl}piperazin-1-yl)ethyl]morpholine] | – | – | fold induction at 15 µM [1]: 1.7; fold induction at 15 µM [2]: 1.1
2 | Cc1ccc(S(=O)(=O)c2ccc(NC3CCOCC3)cc2)cc1S(=O)(=O)NCCCn1ccnc1 [Example 366, N-[3-(1H-imidazol-1-yl)propyl]-2-methyl-5-{[4-(tetrahydro-2H-pyran-4-ylamino)phenyl]sulfonyl}benzenesulfonamide] | 2.4 | 1 | –
3 | O=S(=O)(NCc1ccc(Br)cc1)c1cc(S(=O)(=O)c2ccccc2)ccc1C(F)(F)F [Example 964, N-(4-bromobenzyl)-5-(phenylsulfonyl)-2-(trifluoromethyl)benzenesulfonamide] | – | – | fold induction at 10 µM: 1.2
4 | COc1ccc(S(=O)(=O)c2ccccc2)cc1S(=O)(=O)N[C@H]1C[C@@H]1c1ccccc1 [Example 270, 2-methoxy-N-[(1S,2R)-2-phenylcyclopropyl]-5-(phenylsulfonyl)benzenesulfonamide] | 1.5 | 1.2 | –
5 | Cc1cc(C)c(S(=O)(=O)c2ccc(F)cc2)cc1S(=O)(=O)NCCCn1ccnc1 [Example 330, 5-[(4-fluorophenyl)sulfonyl]-N-[3-(1H-imidazol-1-yl)propyl]-2,4-dimethylbenzenesulfonamide] | 3.2 | 1.1 | –
6 | Cc1ccc(S(=O)(=O)c2ccccc2)cc1S(=O)(=O)NCCCN1CCCC1 [Example 220, 2-methyl-5-(phenylsulfonyl)-N-(3-pyrrolidin-1-ylpropyl)benzenesulfonamide] | 3.6 | 1.8 | –
7 | COc1ccc(CCN(C)S(=O)(=O)c2cc(S(=O)(=O)c3ccccc3)ccc2C)cc1OC [Example 272, N-[2-(3,4-dimethoxyphenyl)ethyl]-N,2-dimethyl-5-(phenylsulfonyl)benzenesulfonamide] | 0.9 | 1 | –
8 | Cc1ccc(C)n1CC1CCN(S(=O)(=O)c2cc(S(=O)(=O)c3ccccc3)ccc2Cl)CC1 [Example 653, 1-{[2-chloro-5-(phenylsulfonyl)phenyl]sulfonyl}-4-[(2,5-dimethyl-1H-pyrrol-1-yl)methyl]piperidine] | – | – | fold induction at 15 µM [1]: 1; fold induction at 15 µM [2]: 1
9 | Cc1ccc(S(=O)(=O)c2ccccc2)cc1S(=O)(=O)NCCc1ccccc1Cl [Example 31, N-[2-(2-chlorophenyl)ethyl]-2-methyl-5-(phenylsulfonyl)benzenesulfonamide] | – | – | fold induction at 30 µM [5]: 0.4; fold induction at 30 µM [6]: 0.5
10 | Cc1ccc(S(=O)(=O)c2ccc(F)cc2)cc1S(=O)(=O)NCCCN1CCCC1 [Example 178, 5-[(4-fluorophenyl)sulfonyl]-2-methyl-N-(3-pyrrolidin-1-ylpropyl)benzenesulfonamide] | 2.8 | 1.5 | –
11 | C=CCN(CCc1ccc(OC)c(OC)c1)S(=O)(=O)c1cc(S(=O)(=O)c2ccccc2)ccc1C [Example 273, N-allyl-N-[2-(3,4-dimethoxyphenyl)ethyl]-2-methyl-5-(phenylsulfonyl)benzenesulfonamide] | 0.9 | 1 | –
12 | O=C(O)CCNS(=O)(=O)c1cccc(S(=O)(=O)c2ccccc2)c1 [Example 202, N-{[3-(phenylsulfonyl)phenyl]sulfonyl)-beta-alanine] | – | – | fold induction at 30 µM [5]: 1.1; fold induction at 30 µM [6]: 1.2
13 | Cc1ccc(S(=O)(=O)c2ccccc2)cc1S(=O)(=O)NCCC(=O)NC1CCCc2ccccc21 (stereo not drawn) [Example 667, N^3-{[2-methyl-5-(phenylsulfonyl)phenyl]sulfonyl}-N-(1,2,3,4-tetrahydronaphthalen-1-yl)-β-alaninamide] | – | – | fold induction at 10 µM: 0.9
14 | Cc1ccc(S(=O)(=O)c2ccccc2)cc1S(=O)(=O)NC1CCCCC1 [Example 400, N-cyclohexyl-2-methyl-5-(phenylsulfonyl)benzenesulfonamide] | 1.8 | 1.2 | –
15 | CCN(CC)CCN1CCN(S(=O)(=O)c2cc(S(=O)(=O)c3ccccc3)ccc2C)CC1 [Example 280, N,N-diethyl-N-[2-(4-{[2-methyl-5-(phenylsulfonyl)phenyl]sulfonyl}piperazin-1-yl)ethyl]amine] | 2.7 | 1.5 | –
16 | Cc1cc(C)c(S(=O)(=O)c2ccc(F)cc2)cc1S(=O)(=O)NC1CCOCC1 [Example 332, 5-[(4-fluorophenyl)sulfonyl]-2,4-dimethyl-N-(tetrahydro-2H-pyran-4-yl)benzenesulfonamide] | 3 | 1 | –
17 | CC(C)c1ccc(S(=O)(=O)c2ccc(F)cc2)cc1S(=O)(=O)NC(CO)C(C)C (stereo not drawn) [Example 734, 5-[(4-fluorophenyl)sulfonyl]-N-[1-(hydroxymethyl)-2-methylpropyl]-2-isopropylbenzenesulfonamide] | – | – | fold induction at 10 µM: 1.6
18 | Cc1cc(C)c(S(=O)(=O)c2ccccc2)cc1S(=O)(=O)NCC(O)c1cccnc1 (stereo not drawn) [Example 737, N-(2-hydroxy-2-pyridin-3-ylethyl)-2,4-dimethyl-5-(phenylsulfonyl)benzenesulfonamide] | – | – | fold induction at 10 µM: 2.4
19 | CN(C)c1ccc(S(=O)(=O)c2ccccc2)cc1S(=O)(=O)NCCc1ccccn1 [Example 601, 2-(dimethylamino)-5-(phenylsulfonyl)-N-(2-pyridin-2-ylethyl)benzenesulfonamide] | – | – | fold induction at 15 µM [1]: 2; fold induction at 15 µM [2]: 0.9
20 | Cc1cc(S(=O)(=O)c2ccccc2)cc(S(=O)(=O)NC2CCN(C(=O)OC(C)(C)C)CC2)c1C [Example 910, tert-butyl 4-({[2,3-dimethyl-5-(phenylsulfonyl)phenyl]sulfonyl}amino)piperidine-1-carboxylate] | – | – | fold induction at 10 µM: 1.2

Now from value to compound, other results behind:

Row | fold induction at 15 µM [3] | fold induction at 15 µM [4] | SMILES | further results
21 | 2.3 | 1.1 | Cc1cc(C)c(S(=O)(=O)c2ccc(F)cc2)cc1S(=O)(=O)NCCc1ccccn1 [Example 331, 5-[(4-fluorophenyl)sulfonyl]-2,4-dimethyl-N-(2-pyridin-2-ylethyl)benzenesulfonamide] | –
22 | 1.2 | 1.1 | Cc1ccc(S(=O)(=O)c2ccccc2)cc1S(=O)(=O)NC(C)(C)CO [Example 404, N-(2-hydroxy-1,1-dimethylethyl)-2-methyl-5-(phenylsulfonyl)benzenesulfonamide] | –
23 | 1.7 | 0.8 | CCc1ccccc1S(=O)(=O)c1ccc(C)c(S(=O)(=O)NCCc2ccccn2)c1 [Example 431, 5-[(2-ethylphenyl)sulfonyl]-2-methyl-N-(2-pyridin-2-ylethyl)benzenesulfonamide] | –
24 | 2.5 | 1.1 | CC(=O)c1ccc(S(=O)(=O)c2ccc(C)c(S(=O)(=O)NCCc3ccccn3)c2)cc1 [Example 403, 5-[(4-acetylphenyl)sulfonyl]-2-methyl-N-(2-pyridin-2-ylethyl)benzenesulfonamide] | –
25 | 1.6 | 0.9 | O=S(=O)(NCCc1ccccn1)c1cc(S(=O)(=O)c2ccccc2)ccc1C1CCCCC1 [Example 459, 2-cyclohexyl-5-(phenylsulfonyl)-N-(2-pyridin-2-ylethyl)benzenesulfonamide] | –
